# Measurements: BindingDB's records for doi:10.1016/s0960-894x(00)00026-3 (Universit&#224, 2000)
# Experiment: Inhibition of Clostridium histolyticum collagenase using a linear regression program
row,SMILES,Ki [µM]
1,CC(C(=O)NO)N(Cc1ccc([N+](=O)[O-])cc1)S(C)(=O)=O (stereo not given) [N-Hydroxy-2-[methanesulfonyl-(4-nitro-benzyl)-amino]-propionamide],76
2,CC(C(=O)NO)N(Cc1ccc([N+](=O)[O-])cc1)C(=O)Nc1cccc2ccccc12 (stereo not given) [N-Hydroxy-2-[3-naphthalen-1-yl-1-(4-nitro-benzyl)-ureido]-propionamide],10
3,CC(C(=O)NO)N(Cc1ccc([N+](=O)[O-])cc1)S(=O)(=O)c1cccs1 (stereo not given) [N-Hydroxy-2-[(4-nitro-benzyl)-(thiophene-2-sulfonyl)-amino]-propionamide],11
4,Cc1ccc(S(=O)(=O)N(Cc2ccc([N+](=O)[O-])cc2)C(C)C(=O)O)cc1 (stereo not given) [2-[(4-Nitro-benzyl)-(toluene-4-sulfonyl)-amino]-propionic acid],13
5,CC(C(=O)O)N(Cc1ccc([N+](=O)[O-])cc1)S(=O)(=O)Cc1ccccc1 (stereo not given) [2-[(4-Nitro-benzyl)-phenylmethanesulfonyl-amino]-propionic acid],15
6,CC(C(=O)NO)N(Cc1ccc([N+](=O)[O-])cc1)S(=O)(=O)c1ccccc1[N+](=O)[O-] (stereo not given) [N-Hydroxy-2-[(2-nitro-benzenesulfonyl)-(4-nitro-benzyl)-amino]-propionamide],13
7,"CC(C(=O)NO)N(Cc1ccc([N+](=O)[O-])cc1)Sc1ccc([N+](=O)[O-])cc1[N+](=O)[O-] (stereo not given) [2-[(2,4-Dinitro-phenylsulfanyl)-(4-nitro-benzyl)-amino]-N-hydroxy-propionamide]",9
8,CC(C(=O)O)N(Cc1ccc([N+](=O)[O-])cc1)S(=O)(=O)C(F)(F)C(F)(F)C(F)(F)C(F)(F)C(F)(F)C(F)(F)C(F)(F)C(F)(F)F (stereo not given) [2-[(Heptadecafluorooctane-1-sulfonyl)-(4-nitro-benzyl)-amino]-propionic acid],1.8
9,CC(C(=O)NO)N(Cc1ccc([N+](=O)[O-])cc1)S(=O)(=O)N(C)C (stereo not given) [2-[[(dimethylamino)sulfonyl](4-nitrobenzyl)amino]-N-hydroxypropanamide],69
10,CC(C(=O)O)N(Cc1ccc([N+](=O)[O-])cc1)C(=S)NC(=O)c1ccccc1 (stereo not given) [2-[3-Benzoyl-1-(4-nitro-benzyl)-thioureido]-propionic acid],0.9
11,CC(=O)c1ccc(S(=O)(=O)N(Cc2ccc([N+](=O)[O-])cc2)C(C)C(=O)NO)cc1 (stereo not given) [2-[(4-Acetyl-benzenesulfonyl)-(4-nitro-benzyl)-amino]-N-hydroxy-propionamide],9
12,CC(=O)Nc1ccc(S(=O)(=O)N(Cc2ccc([N+](=O)[O-])cc2)C(C)C(=O)NO)cc1 (stereo not given) [2-[(4-Acetylamino-benzenesulfonyl)-(4-nitro-benzyl)-amino]-N-hydroxy-propionamide],11
13,CC(C(=O)O)N(Cc1ccc([N+](=O)[O-])cc1)S(=O)(=O)c1ccccc1 (stereo not given) [2-[Benzenesulfonyl-(4-nitro-benzyl)-amino]-propionic acid],21
14,"CC(C(=O)NO)N(Cc1ccc([N+](=O)[O-])cc1)S(=O)(=O)c1cc(Cl)cc(Cl)c1O (stereo not given) [2-[(3,5-Dichloro-2-hydroxy-benzenesulfonyl)-(4-nitro-benzyl)-amino]-N-hydroxy-propionamide]",12
15,CC(C(=O)NO)N(Cc1ccc([N+](=O)[O-])cc1)S(=O)(=O)c1ccc(I)cc1 (stereo not given) [N-Hydroxy-2-[(4-iodo-benzenesulfonyl)-(4-nitro-benzyl)-amino]-propionamide],37
16,CC(C(=O)O)N(Cc1ccc([N+](=O)[O-])cc1)S(=O)(=O)c1ccc(Br)cc1 (stereo not given) [2-[(4-Bromo-benzenesulfonyl)-(4-nitro-benzyl)-amino]-propionic acid],10
17,CC(C(=O)NO)N(Cc1ccc([N+](=O)[O-])cc1)S(=O)(=O)c1ccc(C(=O)O)cc1 (stereo not given) [4-[(1-Hydroxycarbamoyl-ethyl)-(4-nitro-benzyl)-sulfamoyl]-benzoic acid],6
18,CC(C(=O)O)N(Cc1ccc([N+](=O)[O-])cc1)S(=O)(=O)C(F)(F)F (stereo not given) [2-[(4-Nitro-benzyl)-trifluoromethanesulfonyl-amino]-propionic acid],4.7
19,CC(C(=O)O)N(Cc1ccc([N+](=O)[O-])cc1)S(C)(=O)=O (stereo not given) [2-[Methanesulfonyl-(4-nitro-benzyl)-amino]-propionic acid],18
20,CC(C(=O)NO)N(Cc1ccc([N+](=O)[O-])cc1)S(=O)(=O)c1ccc2ccccc2c1 (stereo not given) [N-Hydroxy-2-[(naphthalene-2-sulfonyl)-(4-nitro-benzyl)-amino]-propionamide],8
21,CC(C(=O)O)N(Cc1ccc([N+](=O)[O-])cc1)C(=O)Nc1ccc(F)cc1 (stereo not given) [2-[3-(4-Fluoro-phenyl)-1-(4-nitro-benzyl)-ureido]-propionic acid],5.4
22,CC(C(=O)NO)N(Cc1ccc([N+](=O)[O-])cc1)S(=O)(=O)c1ccc([N+](=O)[O-])cc1 (stereo not given) [N-Hydroxy-2-[(4-nitro-benzenesulfonyl)-(4-nitro-benzyl)-amino]-propionamide],10
23,CC(C(=O)O)N(Cc1ccc([N+](=O)[O-])cc1)C(=O)NS(=O)(=O)c1ccc(Cl)cc1 (stereo not given) [2-[({[(4-chlorophenyl)sulfonyl]amino}carbonyl)(4-nitrobenzyl)amino]propanoic acid],2.4

row,SMILES,Ki [µM]
1,CC(C(=O)NO)N(Cc1ccc([N+](=O)[O-])cc1)C(=O)NS(=O)(=O)c1ccc(F)cc1 (stereo not given) [2-[({[(4-fluorophenyl)sulfonyl]amino}carbonyl)(4-nitrobenzyl)amino]-N-hydroxypropanamide],9
2,CC(C(=O)NO)N(Cc1ccc([N+](=O)[O-])cc1)S(=O)(=O)C(Cl)(Cl)Cl (stereo not given) [N-Hydroxy-2-[(4-nitro-benzyl)-trichloromethanesulfonyl-amino]-propionamide],52
3,CC(C(=O)O)N(Cc1ccc([N+](=O)[O-])cc1)S(=O)(=O)c1ccc(C(=O)O)cc1 (stereo not given) [4-[(1-Carboxy-ethyl)-(4-nitro-benzyl)-sulfamoyl]-benzoic acid],1.4
4,CC(C(=O)O)N(Cc1ccc([N+](=O)[O-])cc1)S(=O)(=O)c1ccc([N+](=O)[O-])c(Cl)c1 (stereo not given) [2-[(3-Chloro-4-nitro-benzenesulfonyl)-(4-nitro-benzyl)-amino]-propionic acid],3.3
5,CC(C(=O)O)N(Cc1ccc([N+](=O)[O-])cc1)C(=O)Nc1ccc(Cl)cc1 (stereo not given) [2-[3-(4-Chloro-phenyl)-1-(4-nitro-benzyl)-ureido]-propionic acid],6.5
6,"CC(C(=O)O)N(Cc1ccc([N+](=O)[O-])cc1)S(=O)(=O)c1cc(Cl)cc(Cl)c1O (stereo not given) [2-[(3,5-Dichloro-2-hydroxy-benzenesulfonyl)-(4-nitro-benzyl)-amino]-propionic acid]",2.5
7,CC(=O)Nc1ccc(S(=O)(=O)N(Cc2ccc([N+](=O)[O-])cc2)C(C)C(=O)O)cc1 (stereo not given) [2-[(4-Acetylamino-benzenesulfonyl)-(4-nitro-benzyl)-amino]-propionic acid],3.1
8,CC(C(=O)O)N(Cc1ccc([N+](=O)[O-])cc1)S(=O)(=O)c1ccc2ccccc2c1 (stereo not given) [2-[(Naphthalene-2-sulfonyl)-(4-nitro-benzyl)-amino]-propionic acid],1.3
9,CC(C(=O)O)N(Cc1ccc([N+](=O)[O-])cc1)C(=O)Nc1cccc2ccccc12 (stereo not given) [2-[3-Naphthalen-1-yl-1-(4-nitro-benzyl)-ureido]-propionic acid],4.6
10,CC(C(=O)O)N(Cc1ccc([N+](=O)[O-])cc1)S(=O)(=O)c1c(F)c(F)c(F)c(F)c1F (stereo not given) [2-[(4-Nitro-benzyl)-pentafluorobenzenesulfonyl-amino]-propionic acid],0.4
11,CC(C(=O)NO)N(Cc1ccc([N+](=O)[O-])cc1)S(=O)(=O)c1cccc2cccnc12 (stereo not given) [N-Hydroxy-2-[(4-nitro-benzyl)-(quinoline-8-sulfonyl)-amino]-propionamide],8
12,CC(C(=O)O)N(Cc1ccc([N+](=O)[O-])cc1)S(=O)(=O)c1cccc(C(=O)O)c1 (stereo not given) [3-[(1-Carboxy-ethyl)-(4-nitro-benzyl)-sulfamoyl]-benzoic acid],2
13,CC(C(=O)NO)N(Cc1ccc([N+](=O)[O-])cc1)S(=O)(=O)c1cccc(C(=O)O)c1 (stereo not given) [3-[(1-Hydroxycarbamoyl-ethyl)-(4-nitro-benzyl)-sulfamoyl]-benzoic acid],9
14,CC(C(=O)O)N(Cc1ccc([N+](=O)[O-])cc1)S(=O)(=O)c1cccc2c(N(C)C)cccc12 (stereo not given) [2-[(5-Dimethylamino-naphthalene-1-sulfonyl)-(4-nitro-benzyl)-amino]-propionic acid],1.1
15,CC(C(=O)O)N(Cc1ccc([N+](=O)[O-])cc1)S(=O)(=O)c1ccc(I)cc1 (stereo not given) [2-[(4-Iodo-benzenesulfonyl)-(4-nitro-benzyl)-amino]-propionic acid],12
16,Cc1ccc(S(=O)(=O)NC(=O)N(Cc2ccc([N+](=O)[O-])cc2)C(C)C(=O)NO)cc1 (stereo not given) [N-hydroxy-2-[({[(4-methylphenyl)sulfonyl]amino}carbonyl)(4-nitrobenzyl)amino]propanamide],12
17,CC(C(=O)O)N(Cc1ccc([N+](=O)[O-])cc1)S(=O)(=O)c1ccccc1[N+](=O)[O-] (stereo not given) [2-[(2-Nitro-benzenesulfonyl)-(4-nitro-benzyl)-amino]-propionic acid],4.8
18,CC(C(=O)NO)N(Cc1ccc([N+](=O)[O-])cc1)C(=O)Nc1ccc(F)cc1 (stereo not given) [2-[3-(4-Fluoro-phenyl)-1-(4-nitro-benzyl)-ureido]-N-hydroxy-propionamide],12
19,CC(C(=O)O)N(Cc1ccc([N+](=O)[O-])cc1)S(=O)(=O)C(Cl)(Cl)Cl (stereo not given) [2-[(4-Nitro-benzyl)-trichloromethanesulfonyl-amino]-propionic acid],5.1
20,CC(C(=O)O)N(Cc1ccc([N+](=O)[O-])cc1)S(=O)(=O)N(C)C (stereo not given) [2-[[(dimethylamino)sulfonyl](4-nitrobenzyl)amino]propanoic acid],36
21,CC(C(=O)NO)N(Cc1ccc([N+](=O)[O-])cc1)S(=O)(=O)C(F)(F)F (stereo not given) [N-Hydroxy-2-[(4-nitro-benzyl)-trifluoromethanesulfonyl-amino]-propionamide],75
22,CC(C(=O)NO)N(Cc1ccc([N+](=O)[O-])cc1)S(=O)(=O)Cc1ccccc1 (stereo not given) [N-Hydroxy-2-[(4-nitro-benzyl)-phenylmethanesulfonyl-amino]-propionamide],50
